Source: ChEMBL document CHEMBL1201862, “PubChem BioAssay data set” (2004)
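1) Cells in 96-well plates. 2) Compound, 48 h, 5 concentrations. 3) Linear interpolation between surrounding doses. 4) Unreached endpoint = highest concentration. Abbreviation: GI50, concentration required for 50% inhibition of growth.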 Activity calls are given as the source filed them. No stated cut-off is given here; in the data, active = GI50 up to about 1.1 µM and inactive = higher.

Tests used:
Assay in all cases: DTP human tumour cell line panel, 48 h
[1] = test system: SF-539
[2] = test system: SK-OV-3
[3] = test system: OVCAR-4
[4] = test system: SF-268
[5] = test system: HOP-18
[6] = test system: RXF 393
[7] = test system: EKVX
[8] = test system: TK-10
[9] = test system: SK-MEL-28
[10] = test system: SNB-19
[11] = test system: SR
[12] = test system: HCT-15
[13] = test system: A549
[14] = test system: NCI-H522
[15] = test system: SW-620
[16] = test system: NCI-H226
[17] = test system: ACHN
[18] = test system: OVCAR-3
[19] = test system: LXFL 529
[20] = test system: Malme-3M
[21] = test system: HOP-92
[22] = test system: XF498
[23] = test system: HCT-116
[24] = test system: HT-29
[25] = test system: CCRF-CEM
[26] = test system: KM12
[27] = test system: SK-MEL-2
[28] = test system: OVCAR-8
[29] = test system: NCI-H23
[30] = test system: COLO 205
[31] = test system: CAKI-1
[32] = test system: MOLT-4
[33] = test system: M19-MEL
[34] = test system: NCI-H460
[35] = test system: DMS-273
[36] = test system: SN12C
[37] = test system: OVCAR-5
[38] = test system: LOX IMVI
[39] = test system: U-251
[40] = test system: M14
[41] = test system: UO-31
[42] = test system: DMS-114
[43] = test system: KM-20L2
[44] = test system: K562
[45] = test system: HOP-62
[46] = test system: HCC 2998
[47] = test system: IGROV-1
[48] = test system: UACC-257
[49] = test system: DLD-1
[50] = test system: SNB-75
[51] = test system: A498
[52] = test system: SK-MEL-5
[53] = test system: NCI/ADR-RES
[54] = test system: HL-60
[55] = test system: SF-295
[56] = test system: UACC-62
[57] = test system: RPMI-8226
[58] = test system: SNB-78
[59] = test system: MCF7

Measured: GI50

CC(C)C(=O)CC(c1ccc(Br)cc1)N1N=C(C(C)C)CC1c1ccc(Br)cc1 (stereo unspecified)
62.4 µM: [12]
inactive: [1] > 100 µM | [2] 34.5 µM | [3] > 100 µM | [4] > 100 µM | [5] > 100 µM | [6] 16.9 µM | [7] 44.9 µM | [8] > 100 µM | [9] > 100 µM | [10] 50.7 µM | [11] 69 µM | [13] 96.8 µM | [14] 65.9 µM | [15] 93.3 µM | [16] > 100 µM | [17] > 100 µM | [18] 70.8 µM | [19] > 100 µM | [20] 31.4 µM | [21] 31.4 µM | [22] 21 µM | [23] 29.4 µM | [24] 18.6 µM | [25] 30.5 µM | [26] > 100 µM | [27] 53.6 µM | [28] > 100 µM | [29] > 100 µM | [30] > 100 µM | [31] > 100 µM | [32] 31.3 µM | [33] 25.9 µM | [34] 51.2 µM | [35] 38.1 µM | [36] > 100 µM | [37] > 100 µM | [38] 55.8 µM | [39] 48.8 µM | [40] 66.1 µM | [41] 68.7 µM | [42] 27.9 µM | [43] 45.3 µM | [44] 64.4 µM | [45] > 100 µM | [46] 34.2 µM

COc1cc(/C=C/C(=O)O)ccc1C(=O)O/C=C/c1ccccc1
99.8 µM: [12]
inactive: [1] > 100 µM | [2] > 100 µM | [47] > 100 µM | [3] > 100 µM | [4] > 100 µM | [5] > 100 µM | [6] > 100 µM | [7] > 100 µM | [48] > 100 µM | [9] > 100 µM | [10] > 100 µM | [13] > 100 µM | [14] > 61.9 µM | [15] > 100 µM | [16] > 100 µM | [18] > 100 µM | [20] > 100 µM | [21] > 100 µM | [22] > 100 µM | [23] > 72.8 µM | [24] > 100 µM | [49] > 100 µM | [50] 67 µM | [51] > 85.3 µM | [52] > 100 µM | [25] 60.7 µM | [53] > 100 µM | [54] 45.3 µM | [26] > 100 µM | [27] > 100 µM | [28] > 67.5 µM | [29] > 100 µM | [55] > 100 µM | [30] > 100 µM | [32] 65.9 µM | [33] > 81.7 µM | [34] > 100 µM | [35] > 100 µM | [36] > 100 µM | [37] > 100 µM | [38] 73.1 µM | [39] > 100 µM | [56] > 100 µM | [41] > 66.7 µM | [57] > 100 µM | [42] > 100 µM | [43] > 100 µM | [44] > 100 µM | [58] > 100 µM | [45] > 100 µM | [59] 73.5 µM

C[C@H](CN1CC(=O)NC(=O)C1)N1CC(=O)NC(=O)C1
> 76.2 µM: [12]
active: [42] 0.18 µM
inactive: [1] > 100 µM | [2] > 100 µM | [47] > 100 µM | [3] > 100 µM | [4] > 96.2 µM | [5] > 100 µM | [6] > 100 µM | [7] 57 µM | [48] > 100 µM | [9] > 100 µM | [10] 50.4 µM | [13] > 70.5 µM | [14] 20.8 µM | [15] > 47.3 µM | [16] 39 µM | [18] > 100 µM | [20] 42.9 µM | [21] > 100 µM | [22] > 100 µM | [23] 82.4 µM | [24] > 100 µM | [49] > 86.5 µM | [50] > 100 µM | [51] > 64.6 µM | [52] > 100 µM | [25] 34.3 µM | [53] > 100 µM | [26] > 100 µM | [27] > 10 µM | [28] > 100 µM | [29] > 86.1 µM | [55] > 100 µM | [30] 11.7 µM | [31] > 100 µM | [32] 9.89 µM | [33] > 100 µM | [34] 9.31 µM | [35] > 100 µM | [36] > 85.3 µM | [37] > 100 µM | [38] > 100 µM | [39] 58.2 µM | [56] > 100 µM | [41] 20 µM | [57] > 53.2 µM | [43] > 87.7 µM | [44] > 84.3 µM | [58] > 100 µM | [45] > 65 µM | [46] 22.7 µM | [59] 44.2 µM
